# According to patent US8574544B1, “Pharmaceutical composition of nanoparticles” (GP Medical, Inc., priority 2005, dated 2013):
# How the values were obtained:
# [1] = cited from earlier work
# diabetic rats [2] = assay: Hypoglycemic effect in diabetic rats (Example no. 10); assay type: in vivo, Wistar male rats
# Procedure: In the in vivo study, rats were injected with streptozotocin (STZ 75 mg/kg intraperitoneal) in 0.01M citrate buffer (pH 4.3) to induce diabetes. The blood from the rat's tail was analyzed with a commercially available glucometer for blood glucose. The blood glucose level on Wistar male rats at no fasting (n=5) was measured at 107.2±8.1 mg/dL for normal rats while the blood glucose level was at 469.7±34.2 mg/dL for diabetic rats. In the animal study, diabetic rats were fasting for 12 hours and subjected to four different conditions: (a) oral deionized water (DI) administration; (b) oral insulin administration at 30 U/kg; (c) oral insulin-loaded nanoparticles administration at 30 U/kg; and (d) subcutaneous (SC) insulin injection at 5 U/kg as positive control. The blood glucose concentration from rat's tail was measured over the time in the study.
# It is illustrative that substantially all insulin from the oral administration route has been decomposed in rat stomach. As anticipated, the glucose decrease for the SC insulin injection route appears in rat blood in the very early time interval and starts to taper off after 3 hours in this exemplary study.
# The most important observation of the study comes from the oral administration route with insulin-loaded nanoparticles. […]
# diabetic rats [3] = assay: Freeze-dried nanoparticles in enteric-coated capsule in diabetic rats (Example no. 19); assay type: in vivo; conditions: SC injection 5 U/kg
# Procedure: In the in vivo study, rats as prepared and conditioned according to Example no. 10 were used in this evaluation. […] The blood glucose concentration from rat's tail was measured over time.
# As anticipated, the glucose decrease for the SC insulin injection method is evident in rat blood at a very early time interval starts to taper off after 2 hours, and ends at about 6 hours in this exemplary study. The most important observation of the study comes from the oral administration route with insulin-loaded lyophilized (namely, freeze-dried) nanoparticles. Nanoparticles of this example have an insulin LC at 4.4%, whereas nanoparticles from Example no. […] With the same amount of nanoparticles in both examples, the insulin-feeding ratio of Example no. 19 to Example no. 10 is about 1:3. In other words, the insulin fed to a rat in this study from nanoparticles is about ⅓ of the insulin from nanoparticles fed to rats in Example no. 10.
# The blood glucose begins to decrease from the base line at about 3 hours after administration and sustains a lower glucose level for more than 10 hours into study. It implies that the current insulin-loaded nanoparticles may modulate the glucose level in animals in a sustained or prolonged effective mode. […]
# [4] = insulin from bovine pancreas (Sigma-Aldrich); cited from earlier work
# [5] = tested on: brush border membrane bounded enzymes; assay: Enzyme inhibition study: enzymatic degradation of insulin versus time; assay type: biochemical; conditions: 5 mg/ml; insulin 1 mg/ml; up to 2 hours
# Text: Brush border membrane bounded enzymes were used to simulate a contacting membrane at the bottom of a donor compartment, wherein the insulin-loaded medium (Krebs-Ringer buffer) in the donor compartment was used as the starting material at time zero. Three elements were used in this enzyme inhibition study to assess the enzymatic degradation of insulin versus time by brush border membrane bounded enzymes.
# [6] = in vivo; cited from earlier work
# [7] = 20° C.; cited from earlier work
compound,measurement,setting,value
Drotrecogin alfa (activated),time to peak plasma levels,[1]; i.v. dosage guidelines,two
same,time to complete clearance from plasma after termination of infusion,[1]; i.v. infusion,two
"insulin: model insulin from bovine pancreas (Sigma-Aldrich), given orally or by SC injection as controls",time after which glucose decrease starts to taper off,diabetic rats [2]; SC injection 5 U/kg,3 h
same,glucose change as a percentage of base lines,"diabetic rats [2]; oral 30 U/kg, over 8 hours, n=5",relatively constant
same,time after which glucose decrease starts to taper off,diabetic rats [3],2 h
same,time at which glucose decrease ends,diabetic rats [3],about 6 hours
same,activity,[4],≥ 27 USP units/mg
"O=C(O)CN(CCN(CC(=O)O)CC(=O)O)CCN(CC(=O)O)CC(=O)O [DTPA, Diethylene triamine pentaacetic acid]",protection of insulin activity or viable content against enzymatic degradation,[5],substantially protect or maintain the insulin activity or viable content
21^A-Gly-30^Ba-L-Arg-30^Bb-L-Arg-human insulin [Insulin glargine],duration of activity,[6],up to 24 hours
"OC[C@H]1O[C@H](O[C@H]2O[C@H](CO)[C@@H](O)[C@H](O)[C@H]2O)[C@H](O)[C@@H](O)[C@@H]1O [Trehalose, α-D-glucopyranosyl-(1→1)-α-D-glucopyranoside]",solubility,[7],68.9 g/100 g H2O
